How the values were obtained:
CD34^+CD38^− cells = assay: Expansion of CD34+CD38- cells using human cord blood-derived CD34+ cells (Assay Example 1); format: cell-based; settings: for Comparison with TPO: 3 μg/mL compound vs TPO 10 ng/mL, CD34^+CD38^− cells; for Expansion efficiency (CD34^+CD38^− cells): 100 ng/mL SCF, 7 days, based on the number of CD34^+CD38^− cells in the absence of compound
Protocol: (§1) Human cord blood-derived CD34^+ cells were purchased from Lonza and plated on a 24-well plate (Corning) (10000 cells/1 mL/well). As the culture medium, StemSpan SFEM (StemCell Technologies) containing 100 ng/mL SCF (Wako Pure Chemical Industries) was used, and one of Compounds No. 1 to 72 dissolved in dimethyl sulfoxide was added in an amount of 0.1% (v/v) to a final concentration of 1 or 3 μg/mL. As a positive control, TPO (PeproTech) was used at a final concentration of 10 ng/mL.
(§2) After the cells were incubated in liquid culture at 37° C. for 7 days in a CO2 incubator (5% CO2), the number of viable cells was counted by trypan blue assay. The number of CD34^+CD38^− cells was calculated as follows. After the incubation, the cells in the liquid culture was stained with a CD34 antibody (APC, Becton, Dickinson and Company) and a CD38 antibody (PE, Becton, Dickinson and Company), then washed with PBS(−) containing 2% (v/v) FBS and stained with propidium iodide (Sigma-Aldrich Japan) added to a final concentration of 5 μg/mL. The stained cells were analyzed with a BD FACSCANTO™ II flow cytometer (Becton, Dickinson and Company) to determined the proportions of CD34^+ cells and CD34^+CD38^− cells, which was multiplied by the number of viable cells to calculate the numbers of CD34^+ cells and CD34^+CD38^− cells.
(§3) The expansion efficiencies in the presence of 1 or 3 μg/mL of compounds based on the number of CD34^+ cells in the absence of them are shown in Tables 3-1 and 3-2 on a scale of A for expansion efficiencies of 6 or greater, B for expansion efficiencies of at least 4 and less than 6, and C for expansion efficiencies of at least 2 and less than 4. The expansion efficiencies in the presence of 1 or 3 μg/mL of compounds based on the number of CD34^+CD38^− cells in the absence of them are shown in Tables 4-1 and 4-2 on a scale of A for expansion efficiencies of 10 or greater, B for expansion efficiencies of at least 5 and less than 10, and C for expansion efficiencies of at least 3 and less than 5. Further, in Table 3, the compounds with an expansion efficiency twice or more greater than that of TPO are marked with O.

CD34^+ cells = assay: Expansion of CD34+ cells using human cord blood-derived CD34+ cells (Assay Example 1); format: cell-based; settings: 100 ng/mL SCF, 7 days, based on the number of CD34^+ cells in the absence of compound
Protocol: as §1, §2, §3

HPP-CFC colonies = assay: Expansion of HPP-CFU, blood cell colony forming assay (Assay Example 3); format: cell-based, human; settings: cells cultured with 3 μg/mL compound, 500 cells/dish, 12 days; None = 6
Protocol: The effects of Compounds No. 60 and No. 61 of the present invention on hematopoietic progenitor cells were measured by blood cell colony forming assay. The liquid cell cultures obtained in the presence of Compounds No. 60 or No. 61 at a final concentration of 3 μg/mL in the same manner as in Assay Example 1 were poured into 3.5-cm Petri dishes with MethoCult GF H4435 culture medium (StemCell Technologies) at 500 cells/dish and incubated in a CO2 incubator (5% CO2, 37° C.) for 12 days. The number of HPP-CFC colonies in each plate was counted under a microscope routinely. The assay was carried out at least in triplicate, and the numbers of HPP-CFC colonies were averaged.

SRC = assay: Transplantation of cell culture into immunodeficient (NOD/SCID) mice, SRC assay (Assay Example 4); format: in vivo; settings: CD34^+ cells cultured 1 week with 3 μg/mL Compound No. 60, SCF and Flt-3, 8 weeks after transplantation, vs uncultured CD34^+ cells, FIG. 2
Protocol: Human cord blood-derived CD34^+ cells were cultured for 1 week in StemSpan SFEM (StemCell Technologies) containing SCF (Peprotech) at a final concentration of 100 ng/mL and Flt-3 (Wako Pure Chemical Industries) at a final concentration of 100 ng/mL in the presence of TPO (Peprotech) at a final concentration of 20 ng/mL or Compound No. 60 at a final concentration of 3 μg/mL in the same manner as in Assay Example 1. The cell culture were transplanted into at least five 7- to 8-week-old NOD/SCID mice by tail vein injection at 4×10^4 cells/mouse in terms of the initial number of CD34^+ cells after a sublethal dose of irradiation (2.5 Gy). Eight weeks after the transplantation, the mice were killed, and the bone marrow cells were collected from both thighbones. Subsequently, the bone marrow cells were stained with a human CD45 antibody (APC, Becton, Dickinson and Company), then washed with PBS(−) containing 2% (v/v) FBS and stained with propidium iodide (Sigma-Aldrich Japan) added to a final concentration of 5 μg/mL. The stained cells were analyzed with a flow cytometry to determined the proportion of human CD45^+ cells in the bone marrow cells. […]

Row | Structure (SMILES) | Comparison with TPO (CD34^+CD38^− cells) | Expansion efficiency (CD34^+CD38^− cells) (CD34^+CD38^− cells; 3 μg/mL compound) | Expansion efficiency (CD34^+ cells) (CD34^+ cells; 3 μg/mL compound) | Number of HPP-CFC colonies (HPP-CFC colonies) | SRC expanding effect (proportion of human CD45^+ cells in bone marrow) (SRC) | Expansion efficiency (CD34^+CD38^− cells) (CD34^+CD38^− cells; 1 μg/mL compound) | Expansion efficiency (CD34^+ cells) (CD34^+ cells; 1 μg/mL compound)
1 | CC(=NNC(=O)c1ccc(C(=O)NCc2ccc(C(=O)NCCOCCO)cc2)s1)c1csc(-c2ccc(Br)cc2)c1O [compound 61] | ∘ | A (A for expansion efficiencies of 10 or greater) | A (A for expansion efficiencies of 6 or greater) | 14 |  |  | 
2 | CC(=NNC(=O)c1ccc(C(=O)NCc2ccc(C(=O)NCCOCCO)cc2)s1)c1csc(-c2ccc(C(C)(C)C)cc2)c1O [Compound No. 60] | ∘ | A (A for expansion efficiencies of 10 or greater) | B (B for expansion efficiencies of at least 4 and less than 6) | 25 | excellent SRC expanding effect |  | 
3 | CC(=O)NCc1ccc(CNC(=O)c2ccc(C(=O)NN=C(C)c3csc(-c4ccc(Cl)c(Cl)c4)c3O)s2)cc1 [compound 52] |  |  |  |  |  | A (A for expansion efficiencies of 10 or greater) | A (A for expansion efficiencies of 6 or greater)
4 | CC(=NNC(=O)c1ccc(C(=O)NCc2ccc(C(=O)NCc3ccco3)cc2)s1)c1csc(-c2ccc(Cl)c(Cl)c2)c1O [compound 7] |  | B (B for expansion efficiencies of at least 5 and less than 10) | C (C for expansion efficiencies of at least 2 and less than 4) |  |  |  | 

Source: US9328085B2, “Heterocyclic compounds and expansion agents for hematopoietic stem cells” (NISSAN CHEMICAL INDUSTRIES, LTD., priority 2009, dated 2016)
